The target in assay [1] is recombinant human Cathepsin S (Homo sapiens (Human), UniProt P25774). As to the kind of experiment: Cathepsin S assay procedure (fluorogenic substrate Z-Val-Val-Arg-AMC). The assay is classed as biochemical. The procedure:
25 μl of a 2 mg/l solution of activated recombinant human cathepsin S, in assay buffer, is then added to the well, yielding a final inhibitor concentration of 10 μM.
Enzyme activity is determined by measuring the fluorescence of the liberated aminomethylcoumarin at […] using 390 nm excitation, at 20 minutes. Percentage enzyme activity is calculated by comparison of this activity to that of a solution containing no inhibitor.

In assay [2] the test system is Human B lymphoblastoid cells (Jiyoye). As to the kind of experiment: Cell based Lip10 assay (lip10 accumulation, anti-CD74 ELISA). The conditions noted are these: 24 hours, relative to E64d/LHVS-treated cells, read-out: pEC50 (negative logarithm of the EC50 concentration), lip10 assay (converted). As to the method:
Human B lymphoblastoid cells (Jiyoye) were cultured in RPMI 1640 medium at a density of 500 000 cells/ml in 24-well plates. Cells were treated with a concentration range of compounds (0.001-10 μM) and vehicle alone (DMSO, 0.1% v/v). In order to generate positive control treatments separate wells were treated with 10 μM E64d & 0.1 μM LHVS. The cells were incubated at 37° C. in a humidified incubator containing 5% CO2. After 24 hours the plates were centrifuged at 150×g for five minutes and the media removed. Cells were lysed by adding 65 ul of ice-cold phosphate buffered saline (PBS) containing 1% (v/v) Triton X-100 and protease inhibitors and incubated on ice for 20 minutes. The samples were centrifuged at 18 000×g for 15 minutes at 4° C. and the resulting supernatants collected and stored at −80° C. until required. After measurement of protein concentration using a micro-BCA protein assay all samples were diluted to […] and 50 l of each sample were coated overnight at 4° C. onto wells of high protein-binding 96-well plates. The wells were washed once with PBS (200 l/well) and then incubated at room temperature for 2 hours with 10 μg/ml mouse anti-CD74 Pin.1 monoclonal antibody (50 l/well) in PBS containing 0.05% (v/v) Tween-20 (PBS-T) and 2% (w/v) BSA (PBS-T/BSA). Unbound antibody was then removed by washing three times with PBS-T and followed by the addition of rabbit anti-mouse IgG antibody conjugated to horseradish peroxidase. After washing five times with PBS-T 100 μl of tetramethylbenzidine substrate was added to each well and incubated for 10 minutes on a plate shaker. The reaction was stopped by the addition of 100 μl of 1M hydrochloric acid. Antibody binding was quantified by measuring the optical density (OD, 450 nm) using a Molecular Devices Spectramax Plus. The OD of vehicle-only treated cells was removed from all values and the data was expressed as a percentage of the OD generated from the mean E64d/LHVS-treated cells. The potency of compounds (EC50) was measured by calculating the concentration of inhibitor required to generate 50% inhibition relative to E64d/LHVS-treated cells.
In general terms: In an ELISA, binding on a coated surface is turned into a signal by an enzyme label.

[3] abbreviates: read-out: pIC50 (negative logarithm of the IC50 concentration) for inhibition of human cathepsin S (converted).
Setting [4] is: pH5.5, fluorescence at 20 minutes, read-out: Cat S activity IC50.

Where a name gives a salt, the structure may show the parent alone. Read-outs that look alike come from different tables or passages of the source.

Chain of recombinant human Cathepsin S (P25774 115-331): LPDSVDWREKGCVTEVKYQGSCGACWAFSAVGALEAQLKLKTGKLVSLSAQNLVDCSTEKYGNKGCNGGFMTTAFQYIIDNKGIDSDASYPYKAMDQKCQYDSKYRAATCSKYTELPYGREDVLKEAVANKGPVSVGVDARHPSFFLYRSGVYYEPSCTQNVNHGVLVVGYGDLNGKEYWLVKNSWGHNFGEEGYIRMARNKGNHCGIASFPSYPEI

In the case of `Cn1nnc2c(C#N)nc(-c3ccc(OCCC4CCN(CC(C)(C)O)CC4)c(C(F)(F)F)c3)cc21` [Example 2d, 6-(4-(2-(1-(2-hydroxy-2-methylpropyl)piperidin-4-yl)ethoxy)-3-(trifluoromethyl)phenyl)-1-methyl-1H-[1,2,3]triazolo-[4,5-c]pyridine-4-carbonitrile hydrochloride], the IC50 in assay [1] (setting [3]) is less than 10 nM. For the same molecule, the EC50 in assay [2] was less than 100 nM.

As for `Cn1nnc2c(C#N)nc(-c3ccc(OCCC4CCN(Cc5ncco5)CC4)c(C(F)(F)F)c3)cc21` [Example 3a, 1-methyl-6-(4-(2-(1-(oxazol-2-ylmethyl)piperidin-4-yl)ethoxy)-3-(trifluoromethyl)phenyl)-1H-[1,2,3]triazolo[4,5-c]pyridine-4-carbonitrile], the IC50 in assay [1] (setting [3]) is less than 10 nM. For the same molecule, in assay [2], the EC50 was less than 100 nM.

On to `Cc1ccc(N2CC[C@H](CCOc3ccc(-c4cc5c(nnn5C)c(C#N)n4)cc3C(F)(F)F)C2)nc1` [Example 9b, (R)-1-methyl-6-(4-(2-(1-(5-methylpyridin-2-yl)pyrrolidin-3-yl)ethoxy)-3-(trifluoromethyl)phenyl)-1H-[1,2,3]triazolo[4,5-c]pyridine-4-carbonitrile hydrochloride], for which, in assay [1] (setting [3]), the IC50 is less than 10 nM.

As to `Cn1nnc2c(C#N)nc(-c3ccc(OCc4ccccn4)c(C(F)(F)F)c3)cc21` [Example 20, 1-methyl-6-(4-(pyridin-2-ylmethoxy)-3-(trifluoromethyl)phenyl)-1H-[1,2,3]triazolo[4,5-c]pyridine-4-carbonitrile], the IC50 in assay [1] (setting [3]) was less than 10 nM.

As for `CN(C)CCCOc1ccc(-c2cc3c(nnn3C)c(C#N)n2)cc1C(F)(F)F` [Example 35, 6-(4-(3-(dimethylamino)propoxy)-3-(trifluoromethyl)phenyl)-1-methyl-1H-[1,2,3]triazolo[4,5-c]pyridine-4-carbonitrile], the IC50 in assay [1] (setting [4]) is 3.3 nM; in assay [1] (setting [3]), less than 10 nM.

On to `Cn1cnc2c(C#N)nc(-c3ccc(CCCO)c(C(F)(F)F)c3)cc21` [WO 2009/010491, Example 15, reference compound], for which the IC50 in assay [1] (setting [4]) was determined as 234 nM.

`Cn1nnc2c(C#N)nc(-c3ccc(OCCC4CCN(Cc5ncno5)CC4)c(C(F)(F)F)c3)cc21` [Example 3k, 6-(4-(2-(1-((1,2,4-oxadiazol-5-yl)methyl)piperidin-4-yl)ethoxy)-3-(trifluoromethyl)phenyl)-1-methyl-1H-[1,2,3]triazolo[4,5-c]pyridine-4-carbonitrile]: the IC50 in assay [1] (setting [3]) was less than 10 nM.

Consider `Cn1cnc2c(C#N)nc(-c3ccc(OCCC4CCNCC4)c(C(F)(F)F)c3)cc21` [WO 2009/010491, Example 14a, reference compound], for which, in assay [1] (setting [4]), the IC50 amounted to 8 nM.

Turning to `CNC(=O)CN1CCN(CCCOc2ccc(-c3cc4c(nnn4C)c(C#N)n3)cc2C(F)(F)F)CC1` [Example 36v, 2-(4-(3-(4-(4-cyano-1-methyl-1H-[1,2,3]triazolo[4,5-c]pyridin-6-yl)-2-(trifluoromethyl)phenoxy)propyl)piperazin-1-yl)-N-methylacetamide dihydrochloride], the IC50 in assay [1] (setting [3]) was less than 10 nM.

`Cc1cccc(N2CCC(CCOc3ccc(-c4cc5c(nnn5C)c(C#N)n4)cc3C(F)(F)F)CC2)n1` [Example 4b, 1-methyl-6-(4-(2-(1-(6-methylpyridin-2-yl)piperidin-4-yl)ethoxy)-3-(trifluoromethyl)phenyl)-1H-[1,2,3]triazolo[4,5-c]pyridine-4-carbonitrile hydrochloride]: the IC50 in assay [1] (setting [4]) is 9 nM; in assay [1] (setting [3]) it was less than 10 nM.

As to `Cn1nnc2c(C#N)nc(-c3ccc(OCCCN4CCN(CCO)CC4)c(C(F)(F)F)c3)cc21` [Example 36t, 6-(4-(3-(4-(2-hydroxyethyl)piperazin-1-yl)propoxy)-3-(trifluoromethyl)phenyl)-1-methyl-1H-[1,2,3]triazolo[4,5-c]pyridine-4-carbonitrile dihydrochloride], in assay [1] (setting [3]), the IC50 is less than 10 nM.

Turning to `CN(CCCOc1ccc(-c2cc3c(nnn3C)c(C#N)n2)cc1C(F)(F)F)CC(=O)N(C)C` [Example 36x, 2-((3-(4-(4-cyano-1-methyl-1H-[1,2,3]triazolo[4,5-c]pyridin-6-yl)-2-(trifluoro-methyl)phenoxy)propyl)(methyl)amino)-N,N-dimethylacetamide hydrochloride], the IC50 in assay [1] (setting [3]) is less than 10 nM.

For the molecule `Cn1nnc2c(C#N)nc(-c3ccc(OCCCN4CCN(c5ccccn5)CC4)c(C(F)(F)F)c3)cc21` [Example 36w, 1-methyl-6-(4-(3-(4-(pyridin-2-yl)piperazin-1-yl)propoxy)-3-(trifluoromethyl)phenyl)-1H-[1,2,3]triazolo[4,5-c]pyridine-4-carbonitrile hydrochloride], the IC50 in assay [1] (setting [3]) was less than 10 nM.

As to `Cn1nnc2c(C#N)nc(-c3ccc(OCc4ccncc4)c(C(F)(F)F)c3)cc21` [Example 24, 1-methyl-6-(4-(pyridin-4-ylmethoxy)-3-(trifluoromethyl)phenyl)-1H-[1,2,3]triazolo[4,5-c]pyridine-4-carbonitrile], in assay [1] (setting [3]), the IC50 is less than 10 nM.

Turning to `Cn1nnc2c(C#N)nc(-c3ccc(OCCCN4CCN(CC(C)(C)O)CC4)c(C(F)(F)F)c3)cc21` [Example 36u, 6-(4-(3-(4-(2-hydroxy-2-methylpropyl)piperazin-1-yl)propoxy)-3-(trifluoromethyl)phenyl)-1-methyl-1H-[1,2,3]triazolo[4,5-c]pyridine-4-carbonitrile dihydrochloride], the IC50 in assay [1] (setting [3]) is less than 10 nM.

As to `COC(=O)[C@@H](O)CN1CCC(CCOc2ccc(-c3cc4c(nnn4C)c(C#N)n3)cc2C(F)(F)F)CC1` [Example 39, (S)-methyl 3-(4-(2-(4-(4-cyano-1-methyl-1H-[1,2,3]triazolo[4,5-c]pyridin-6-yl)-2-(trifluoromethyl)phenoxy)ethyl)piperidin-1-yl)-2-hydroxypropanoate], the IC50 in assay [1] (setting [3]) was less than 10 nM.

As for `CNC(=O)CN1CCC(CCOc2ccc(-c3cc4c(nnn4C)c(C#N)n3)cc2C(F)(F)F)CC1` [Example 2b, 1-methyl-6-(4-(2-(1-(2-methylamino-2-oxoethyl)piperidin-4-yl)ethoxy)-3-(trifluoromethyl)phenyl)-1H-[1,2,3]triazolo[4,5-c]pyridine-4-carbonitrile TFA salt], the IC50 in assay [1] (setting [3]) is less than 10 nM.

Consider `Cn1nnc2c(C#N)nc(-c3ccc(OCCC4CCN(C(=O)C5(N)CC5)CC4)c(C(F)(F)F)c3)cc21` [Example 29, 6-(4-(2-(1-(1-aminocyclopropanecarbonyl)piperidin-4-yl)ethoxy)-3-(trifluoromethyl)phenyl)-1-methyl-1H-[1,2,3]triazolo[4,5-d]pyridine-4-carbonitrile], for which the IC50 in assay [1] (setting [3]) was less than 10 nM.

In the case of `Cn1nnc2c(C#N)nc(-c3ccc(OCc4cc[n+]([O-])cc4)c(C(F)(F)F)c3)cc21` [Example 25, methyl-6-(4-(1-N-oxy-pyridin-4-ylmethoxy)-3-(trifluoromethyl)phenyl)-1H-[1,2,3]triazolo[4,5-c]pyridine-4-carbonitrile], in assay [1] (setting [3]), the IC50 was less than 10 nM.

Turning to `CN(C)CCCOc1ccc(-c2cc3c(ncn3C)c(C#N)n2)cc1C(F)(F)F` [WO 2009/010491 - Example 2a, reference compound], the IC50 in assay [1] (setting [4]) was found to be 32 nM.

Turning to `Cn1nnc2c(C#N)nc(-c3ccc(OCCCO)c(C(F)(F)F)c3)cc21` [Example 32, 6-(4-(3-hydroxypropoxy)-3-(trifluoromethyl)phenyl)-1-methyl-1H-[1,2,3]triazolo[4,5-c]pyridine-4-carbonitrile], the IC50 in assay [1] (setting [3]) is less than 10 nM.

As to `Cn1nnc2c(C#N)nc(-c3ccc(OCCC4CNC4)c(C(F)(F)F)c3)cc21` [Example 30, 6-(4-(2-(azetidin-3-yl)ethoxy)-3-(trifluoromethyl)phenyl)-1-methyl-1H-[1,2,3]triazolo[4,5-d]pyridine-4-carbonitrile 2,2,2-trifluoroacetate], in assay [1] (setting [3]), the IC50 was less than 10 nM.

In the case of `CN(C)C(=O)CN1CCN(CCOc2ccc(-c3cc4c(nnn4C)c(C#N)n3)cc2C(F)(F)F)CC1` [Example 37g, 2-(4-(2-(4-(4-cyano-1-methyl-1H-[1,2,3]triazolo[4,5-c]pyridin-6-yl)-2-(trifluoromethyl)phenoxy)ethyl)piperazin-1-yl)-N,N-dimethylacetamide dihydrochloride], the EC50 in assay [2] is less than 100 nM.

The values are drawn from patent US9115126B2, “1H-[1,2,3]triazolo[4,5-c]pyridine-4-carbonitrile derivatives” (Merck Sharp & Dohme B.V., priority 2010, dated 2015).
